Measurements: article PMC6384991, “5-Arylideneimidazolones with Amine at Position 3 as Potential Antibiotic Adjuvants against Multidrug Resistant Bacteria” (Molecules, 2019)
Read-outs that look alike come from different tables or passages of the source. Residues, ends and D or L forms follow the SMILES beside them. *: point of attachment. βNA = c1ccc2cc(N*)ccc2c1

Assays:
[1] = tested on: E. aerogenes CM-64; test: MIC (microdilution) against E. aerogenes CM-64 overexpressing AcrAB-TolC; details: Klebsiella aerogenes
[2] = tested on: E. aerogenes Ea-289; test: MIC (microdilution) against E. aerogenes Ea-289 overexpressing AcrAB-TolC, porin-deficient; details: for MIC: Klebsiella aerogenes; for increase of MIC for Ea-289 and CM-64 in comparison to Ea-298 and Ea-294: efflux overexpressing vs deficient strains
[3] = tested on: E. aerogenes Ea-294, Ea-298; test: MIC (microdilution) against E. aerogenes strains devoid of AcrAB / TolC; details: Klebsiella aerogenes
[4] = tested on: MDR strains of Gram-negative bacteria; set-up: method as in PMID 26824939; details: cited from earlier work
[5] = tested on: MRSA HEMSA 5; test: MIC reduction assay: influence on oxacillin susceptibility in MRSA; assay type: cell-based, S. aureus; details: MRSA HEMSA 5
Procedure: The lack of a direct antibacterial activity of arylideneimidazolone derivatives tested allowed analyzing their anti-resistance potency in combination with the β-lactam antibiotic, oxacillin. […] The potential of compounds to become antibiotic adjuvants was evaluated by comparing the drug effectiveness in the presence and absence of compounds tested, thereby, by determining activity gain parameter A (Table 5). […] Slightly lower adjuvant-like activity was determined for the imidazolone derivatives 7 and 10 (A = 8–16). The efficacy of the remaining compounds was slightly less marked, however, also significant. Although compounds tested improved noticeably the antibacterial activity of oxacillin against MRSA clinical isolate, none of them restored the activity of the antibiotic (MIC < 2 µg/mL) against this highly resistant strain.

[6] = tested on: S. aureus ATCC 25923; test: Intrinsic antibacterial activity (MIC, microdilution) against reference S. aureus strain; assay type: cell-based; details: Staphylococcus aureus
Procedure: (§1) Initially, 12 arylideneimidazolone derivatives were evaluated in vitro for their intrinsic antibacterial effect against two strains of S. aureus: the reference strain S. aureus ATCC 25923 and extremely-drug resistant (XDR) MRSA HEMSA 5 clinical isolate. This step of the study was necessary for: (i) elucidation whether molecules tested are devoid of antistaphylococcal activity and thus cannot become antimicrobial agents by themselves; and (ii) determination of the concentrations of compounds suitable for the further assay on their antibiotic adjuvant potency. In addition, the antistaphylococcal efficacy of oxacillin, which was paired with compounds tested, in the following assays was also assessed (Table 3).

[7] = tested on: MRSA HEMSA 5; test: Intrinsic antibacterial activity (MIC, microdilution) against MRSA HEMSA 5; assay type: cell-based, S. aureus; details: for MIC: Staphylococcus aureus
Procedure: as §1

[8] = tested on: AcrAB-TolC efflux pump in E. aerogenes Ea-289; test: Real-time efflux (RTE) assay with 1,2'-dNA; details: compound 100 µM; Ea-289 strain
[9] = tested on: HepG2 cells; test: Hepatotoxicity, MTS viability assay; assay type: cell-based; details: 1 µM; 72 h; MTS
Procedure: Determination of potential hepatotoxicity was performed with hepatoma HepG2 cells by standard colorimetric MTS procedure. Compound 9 was diluted into the cell culture media in the following concentrations: 0.1, 1, 10 and 100 μM, added to the cells and incubated for 72 h at 37 °C in the presence of 5% CO2. The cytostatic drug doxorubicin (DX) was used at 1 µM, as the reference. […] However, in comparison to the result obtained for the reference DX the hepatotoxicity potential of tested compound is moderate, as its decreased cells’ viability to ~74% of control at 10 µM, whereas DX to ~15% of control at 1 µM (Figure 10).
The HepG2 cells were seeded in 96-well plates at a concentration of 1 × 10^4 cells/well and incubated for 24 h at 37 °C in 5% CO2 atmosphere to reach 50% of confluence. Compound 9 was diluted into fresh growth medium and added to the cells at the final concentrations 0.1 μM–100 μM. The positive controls DX and CCCP were added at 1 μM and 10 μM, respectively, and the cells were incubated for 72 h. The MTS reagent (CellTiter 96® AQueous One Solution Cell Proliferation Assay, Promega, Madison, WI, USA) was added next to the each well and incubated for 4 h. The absorbance was measured next using a microplate reader (EnSpire, PerkinElmer, Waltham, MA USA) at 490 nm to determine cells’ viability.

[10] = CM64, read-out: MIC (in brackets)
[11] = EA289, read-out: MIC (in brackets)
[12] = ATCC25923, S. aureus ATCC 25923, compound alone, MH II broth, read-out: MIC Value
[13] = MRSA HEMSA 5, compound alone, MH II broth, read-out: MIC Value

With `CN1CCN(CCCN2C(=O)/C(=C/c3ccc(Cl)cc3)N=C2N)CC1.Cl` (hydrate or solvate) [Compound 7, (Z)-5-(4-chlorobenzylidene)-2-amino-3-(3-(4-methylpiperazin-1-yl)propyl)-3H-imidazol-4(5H)-one hydrochloride] the melting point was 294 °C.

With `COc1ccc(/C=C2\N=C(N)N(CCCN3CCN(C)CC3)C2=O)cc1.Cl` (hydrate or solvate) [Compound 8, (Z)-5-(4-Methoxybenzylidene)-2-amino-3-(3-(4-methylpiperazin-1-yl)propyl)-3H-imidazol-4(5H)-one hydrochloride] the melting point was 262 °C.

In the case of `O=C(N[C@H](CO)[C@H](O)c1ccc([N+](=O)[O-])cc1)C(Cl)Cl` [Chloramphenicol], the MIC ([1]; CM64) is reported as 1600 µM, the MIC [1, 10] is reported as 512 µg/mL and the MIC ([2]; EA289) is reported as 3200 µM. For the same molecule, the MIC [2, 11] was 1020 µg/mL, the MIC [3] was 200 µM and the MIC ([3]; read-out: MIC (in brackets)) was 64 µg/mL.

In the case of `O=C1NC(N2CCNCC2)=N/C1=C\c1ccc(-c2ccccc2)cc1` [Compound 5], the “reduction of rifampin MIC” value ([4]; MDR Gram-negative bacteria) is listed as 32 fold and the “reduction of antibiotics MIC values” ([4]; oxacillin, chloramphenicol, linezolid and clarytromycin) is listed as 8 fold.

For `CN1CCN(C2=N/C(=C\c3ccc(Cl)cc3)C(=O)N2)CC1` [Compound 6, (Z)-5-(4-chlorobenzylidene)-2-(4-methylpiperazin-1-yl)-3H-imidazol-4(5H)-one], the “reduction of MIC of oxacillin” value [5] was 8 fold, the MIC ([6]; ATCC25923, read-out: MIC Value) was 2000 µM and the MIC ([7]; MRSA, read-out: MIC Value) was 1000 µM.

With `CN1CCN(CCCN2C(=O)/C(=C/c3ccc(Cl)cc3)N=C2N)CC1.Cl` [Compound 7, (Z)-5-(4-chlorobenzylidene)-2-amino-3-(3-(4-methylpiperazin-1-yl)propyl)-3H-imidazol-4(5H)-one hydrochloride] the “reduction of MIC of oxacillin” value [5] was 16 fold, the MIC [6, 12] was 500 to 1000 µM and the MIC [7, 13] was 1000 µM.

In the case of `COc1ccc(/C=C2\N=C(N)N(CCCN3CCN(C)CC3)C2=O)cc1.Cl` [Compound 8, (Z)-5-(4-Methoxybenzylidene)-2-amino-3-(3-(4-methylpiperazin-1-yl)propyl)-3H-imidazol-4(5H)-one hydrochloride], the “reduction of MIC of oxacillin” value [5] is reported as 8 fold, the MIC [6, 12] is reported as > 2000 µM and the MIC [7, 13] is reported as > 2000 µM.

In the case of `CN1CCN(CCCN2C(=O)/C(=C/c3cc4ccccc4c4ccccc34)N=C2N)CC1.Cl` [Compound 10, (Z)-2-Amino-3-(3-(4-methylpiperazin-1-yl)propyl)-5-(phenanthren-9-ylmethylene)-3H-imidazol-4(5H)-one hydrochloride], the MIC ([1]; CM64) is reported as 1000 µM, the MIC ([2]; EA289) is reported as 1000 µM and the MIC [6, 12] is reported as > 125 µM. The MIC [3] was 500 µM, the “Inhibitory efficiency (IE) of 1,2'-dNA efflux” value (from here on “Inhibitory efficiency (IE)”) [8] was 60% and the melting point was 266 to 268 °C. The MIC [7, 13] was > 125 µM.

In the case of `CN1CCN(CCCN2C(=O)/C(=C/c3c4ccccc4cc4ccccc34)N=C2N)CC1.Cl` [Compound 11, (Z)-2-Amino-5-(anthracen-10-ylmethylene)-3-(3-(4-methylpiperazin-1-yl)propyl)-3H-imidazol-4(5H)-one hydrochloride], the MIC ([1]; CM64) is reported as > 2000 µM, the MIC ([2]; EA289) is reported as > 2000 µM and the “increase of MIC for Ea-289 and CM-64 in comparison to Ea-298 and Ea-294” value [2] is reported as ≥ 4 fold. The MIC [6, 12] was 500 µM, the MIC [3] was 500 µM and the “Inhibitory efficiency (IE)” value [8] was 37%. For the same molecule, the melting point was 246 to 248 °C and the MIC [7, 13] was 500 µM.

For `CN1CCN(CCCN2C(=O)/C(=C/c3ccc(Oc4ccccc4)cc3)N=C2N)CC1` [Compound 12, (Z)-5-(4-Phenoxybenzylidene)-2-amino-3-(3-(4-methylpiperazin-1-yl)propyl)-3H-imidazol-4(5H)-one], the MIC ([1]; CM64) was 2000 µM, the “reduction of MIC of oxacillin” value [5] was 8 fold and the MIC ([2]; EA289) was 2000 µM. The MIC ([6]; ATCC25923, read-out: MIC Value) was 250 µM, the MIC [3] was 1000 µM and the “Inhibitory efficiency (IE)” value [8] was 64%. The melting point was 220 to 230 °C and the MIC ([7]; MRSA, read-out: MIC Value) was 250 to 500 µM.

`CN1CCN(CCCN2C(=O)/C(=C/c3cccc4ccccc34)N=C2N)CC1.Cl` [Compound 15, (Z)-2-Amino-3-(3-(4-methylpiperazin-1-yl)propyl)-5-(naphthalen-1-ylmethylene)-3H-imidazol-4(5H)-one hydrochloride] showed an MIC [6, 12] of 1000 µM, a melting point of 187 to 191 °C and an MIC [7, 13] of 1000 to 2000 µM.

With `Cl.NC1=N/C(=C\c2c3ccccc3cc3ccccc23)C(=O)N1CCCN1CCOCC1` [Compound 16, (Z)-2-Amino-5-(anthracen-10-ylmethylene)-3-(3-morpholinopropyl)-3H-imidazol-4(5H)-one hydrochloride] the MIC ([1]; CM64) was > 2000 µM, the MIC ([2]; EA289) was > 2000 µM and the MIC [6, 12] was > 125 µM. The MIC [3] was 2000 µM, the “Inhibitory efficiency (IE)” value [8] was 44% and the melting point was 244 to 246 °C. The MIC [7, 13] was > 125 µM.

In the case of `Cl.NC1=N/C(=C\c2cccc(Oc3ccccc3)c2)C(=O)N1CCCN1CCOCC1` [Compound 17, (Z)-5-(3-phenoxybenzylidene)-2-amino-3-(3-morpholinopropyl)-3H-imidazol-4(5H)-one hydrochloride], the MIC ([1]; CM64) is reported as > 2000 µM, the “reduction of MIC of oxacillin” value [5] is reported as 2 fold and the MIC ([2]; EA289) is reported as > 2000 µM. The “increase of MIC for Ea-289 and CM-64 in comparison to Ea-298 and Ea-294” value [2] was ≥ 4 fold, the MIC [6, 12] was 250 µM and the MIC [3] was 500 µM. For the same molecule, the “Inhibitory efficiency (IE)” value [8] was 61%, the melting point was 227 to 230 °C and the MIC [7, 13] was 250 µM.

For `COc1cccc2c1C(=O)c1c(O)c3c(c(O)c1C2=O)C[C@@](O)(C(=O)CO)C[C@@H]3O[C@H]1C[C@H](N)[C@H](O)[C@H](C)O1` [DX, doxorubicin, reference compound], the “HepG2 cells' viability” value [9] was ~ 15 % of control.

In the case of `C[C@H]1c2cccc(O)c2C(=O)C2=C(O)[C@]3(O)C(=O)C(C(N)=O)=C(O)[C@@H](N(C)C)[C@@H]3[C@@H](O)[C@@H]21` [Doxycycline], the MIC ([1]; CM64) is reported as 72 µM, the MIC [1, 10] is reported as 32 µg/mL and the MIC ([2]; EA289) is reported as 18 µM. The MIC [2, 11] was 8 µg/mL, the MIC [3] was 5 µM and the MIC ([3]; read-out: MIC (in brackets)) was 2 µg/mL.

For `CC[C@H]1OC(=O)[C@H](C)[C@@H](O[C@H]2C[C@@](C)(OC)[C@@H](O)[C@H](C)O2)[C@H](C)[C@@H](O[C@@H]2O[C@H](C)C[C@H](N(C)C)[C@H]2O)[C@](C)(O)C[C@@H](C)C(=O)[C@H](C)[C@@H](O)[C@]1(C)O` [Erythromycin], the MIC ([1]; CM64) was 700 µM, the MIC [1, 10] was 512 µg/mL and the MIC ([2]; EA289) was 350 µM. It also gave an MIC [2, 11] of 256 µg/mL, an MIC [3] of 5 µM and an MIC ([3]; read-out: MIC (in brackets)) of 4 µg/mL.

`CCn1cc(C(=O)O)c(=O)c2cc(F)c(N3CCNCC3)cc21` [Norfloxacin, norfloxacin] gave an MIC ([1]; CM64) of 6 µM, an MIC [1, 10] of 2 µg/mL and an MIC ([2]; EA289) of 200 µM. The MIC [2, 11] was 64 µg/mL, the MIC [3] was 50 µM and the MIC ([3]; read-out: MIC (in brackets)) was 16 µg/mL.

In the case of `Cc1onc(-c2ccccc2)c1C(=O)N[C@@H]1C(=O)N2[C@@H]1SC(C)(C)[C@@H]2C(=O)O` [Oxacillin, reference compound], the MIC [6, 12] is reported as 0.59 µM, the MIC ([6]; ATCC25923, S. aureus ATCC 25923, read-out: MIC Value (in brackets)) is reported as 0.25 µg/mL and the MIC [7, 13] is reported as 1210 µM. For the same molecule, the MIC ([7]; MRSA HEMSA 5, read-out: MIC Value (in brackets)) was 512 µg/mL.

In the case of `NC(N)=NCCC[C@H](NC(=O)[C@@H](N)Cc1ccccc1)C(=O)Nc1ccc2ccccc2c1` [PaβN] (H-Phe-Arg-βNA), the MIC ([1]; CM64) is reported as 500 µM, the MIC ([2]; EA289) is reported as 500 µM and the MIC [3] is reported as 125 µM.

For “(Z)-2-Amino-5-(biphen-4-ylmethylene)-3-(2-(4-methylpiperazin-1-yl)ethyl)-3H-imidazol-4(5H)-one hydrochloride [Compound 14]”, the “reduction of MIC of oxacillin” value [5] was 8 fold and the “MIC Value” ([7]; MRSA HEMSA 5, compound alone, MH II broth) was 250 µM.
